Results as given in patent US8729054B2, “3-desoxy-2-methylene-vitamin D analogs and their uses” (Wisconsin Alumni Research Foundation, priority 2011, dated 2014).
“Also recorded” adds a separate entry of the source.

Legend:
vitamin D-deficient rats [1] = experiment: Bone calcium mobilization (serum calcium); format: in vivo, rat; conditions: for bone calcium mobilization activity as compared to 1,25(OH)2D3: rats on low calcium diet (0.02%), four consecutive ip doses
Experimental: (§1) Male, weanling Sprague-Dawley rats were placed on Diet 11 (Suda et al, J. Nutr. 100:1049, 1970) (0.47% Ca)+vitamins AEK for one week followed by Diet 11 (0.02% Ca)+vitamins AEK for 3 weeks. The rats were then switched to the same diet containing 0.47% Ca for one week followed by two weeks on the same diet containing 0.02% Ca. Dose administration began during the last week on 0.02% calcium diet. Four consecutive ip doses were given approximately 24 hours apart. Twenty-four hours after the last dose, blood was collected from the severed neck and the concentration of serum calcium determined by atomic absorption spectrometry as a measure of bone calcium mobilization. The first 10 cm of the intestine was also collected for intestinal calcium transport analysis using the everted gut sac method.

[2] = test system: Human promyelocytic leukemia (HL60) cells; experiment: HL-60 differentiation (nitro blue tetrazolium reduction); format: cell-based; conditions: for EC50: HL60 cells, four days after treatment, NBT reduction
Experimental: The study drugs were dissolved in ethanol and the concentrations determined using UV spectrophotometry. Serial dilutions were prepared so that a range of drug concentrations could be tested without changing the final concentration of ethanol (≦0.2%) present in the cell cultures.
Human promyelocytic leukemia (HL60) cells were grown in RPMI-1640 medium containing 10% fetal bovine serum. The cells were incubated at 37° C. in the presence of 5% CO2.
HL60 cells were plated at 1.2×10^5 cells/ml. Eighteen hours after plating, cells in duplicate were treated with drug. Four days later, the cells were harvested and a nitro blue tetrazolium reduction assay was performed (Collins et al., 1979; J. Exp. Med. 149:969-974). The percentage of differentiated cells was determined by counting a total of 200 cells and recording the number that contained intracellular black-blue formazan deposits. Verification of differentiation to monocytic cells was determined by measuring phagocytic activity (data not shown).

[3] = biological target: T1, full-length recombinant rat vitamin D receptor (Rattus norvegicus, UniProt P13053); experiment: Vitamin D receptor binding, competition with [3H]-1,25(OH)2D3; conditions: full-length recombinant rat VDR; for Ki: 1 nM radioligand
T1 construct: Full-length recombinant rat receptor was expressed in E. coli BL21 (DE3) Codon Plus RIL cells; histidine tag (C); made in house; host or cells: E. coli BL21 (DE3) Codon Plus RIL
T1 sequence (P13053 1-423): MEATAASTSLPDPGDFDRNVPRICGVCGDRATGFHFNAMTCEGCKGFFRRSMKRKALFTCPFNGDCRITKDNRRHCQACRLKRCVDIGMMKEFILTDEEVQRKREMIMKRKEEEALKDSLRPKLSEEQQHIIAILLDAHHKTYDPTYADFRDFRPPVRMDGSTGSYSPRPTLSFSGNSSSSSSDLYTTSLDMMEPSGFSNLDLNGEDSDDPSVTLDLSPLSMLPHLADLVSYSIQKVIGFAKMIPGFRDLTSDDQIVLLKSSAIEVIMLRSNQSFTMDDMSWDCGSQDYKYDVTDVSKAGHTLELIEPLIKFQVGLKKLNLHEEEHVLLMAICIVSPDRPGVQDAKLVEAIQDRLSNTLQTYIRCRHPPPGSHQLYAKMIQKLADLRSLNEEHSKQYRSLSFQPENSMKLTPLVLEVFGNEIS
Experimental: Full-length recombinant rat receptor was expressed in E. coli BL21 (DE3) Codon Plus RIL cells and purified to homogeneity using two different column chromatography systems. The first system was a nickel affinity resin that utilizes the C-terminal histidine tag on this protein. The protein that was eluted from this resin was further purified using ion exchange chromatography (S-Sepharose Fast Flow). Aliquots of the purified protein were quick frozen in liquid nitrogen and stored at −80° C. until use. For use in binding assays, the protein was diluted in TEDK50 (50 mM Tris, 1.5 mM EDTA, pH 7.4, 5 mM DTT, 150 mM KCI) with 0.1% Chaps detergent. The receptor protein and ligand concentration was optimized such that no more than 20% of the added radiolabeled ligand was bound to the receptor.
Radiolabeled and unlabeled ligands were added to 100 mcl of the diluted protein at a final ethanol concentration of ≦10%, mixed and incubated overnight on ice to reach binding equilibrium. The following day, 100 mcl of hydroxylapatite slurry (50%) was added to each tube and mixed at 10-minute intervals for 30 minutes. The hydroxylapaptite was collected by centrifugation and then washed three times with Tris-EDTA buffer (50 mM Tris, 1.5 mM EDTA, pH 7.4) containing 0.5% Titron X-100. After the final wash, the pellets were transferred to scintillation vials containing 4 ml of Biosafe II scintillation cocktail, mixed and placed in a scintillation counter. Total binding was determined from the tubes containing only radiolabeled ligand.

[4] = test system: 24-hydroxylase (24Ohase) gene promoter; experiment: In vitro transcription assay, luciferase reporter in ROS 17/2.8 (bone) cells; format: cell-based; conditions: for transcriptional activity in bone cells as compared to 1α,25-dihydroxyvitamin D3: 24-hydroxylase gene; for EC50: ROS 17/2.8 cells, luciferase, sixteen hours after dosing, read-out: EC50, transcriptional activity in bone cells (24-hydroxylase gene)
Experimental: Transcription activity was measured in ROS 17/2.8 (bone) cells that were stably transfected with a 24-hydroxylase (24Ohase) gene promoter upstream of a luciferase reporter gene (Arbour et al., 1998). Cells were given a range of doses. Sixteen hours after dosing the cells were harvested and luciferase activities were measured using a luminometer. RLU=relative luciferase units.

vitamin D-deficient rats [5] = experiment: Intestinal calcium transport (everted gut sac method); format: in vivo, rat; conditions: rats on low calcium diet (0.02%), four consecutive ip doses
Experimental: as §1

| affinity to the receptor as compared to 1,25(OH)2D3 [3] | Ki [3] [nM] | EC50 ([2]; Homo sapiens, HL-60, 96 h) [nM] | EC50 [4] [nM] | SMILES | serum calcium levels (vitamin D-deficient rats [1]; at the dosages tested) | EC50 [2] [nM] | mobilization of bone calcium as compared to native hormone at the same dose (vitamin D-deficient rats [1]; 780 pmol/day for 4 consecutive days) | bone calcium mobilization activity as compared to 1,25(OH)2D3 (vitamin D-deficient rats [1]) | potency on HL-60 cell differentiation relative to 1,25(OH)2D3 ([2]; compared with 1,25(OH)2D3) | transcriptional activity in bone cells as compared to 1α,25-dihydroxyvitamin D3 [4] | intestinal calcium transport activity as compared to 1,25(OH)2D3 (vitamin D-deficient rats [5]) | mobilization of bone calcium as compared to native hormone at the same dose (vitamin D-deficient rats [1]; 87 pmol/day for 4 consecutive days) | potency on HL-60 cell differentiation as compared to 1,25(OH)2D3 [2] |
| --- | --- | --- | --- | --- | --- | --- | --- | --- | --- | --- | --- | --- | --- |
|  |  |  |  | C=C1/C(=C\C=C2/CCC[C@]3(C)[C@@H]([C@H](C)CCCC(C)(C)O)CC[C@@H]23)C[C@@H](O)C[C@@H]1O [1α,25-dihydroxyvitamin D3, reference compound] | increased serum calcium levels | 3 |  |  |  |  |  |  |  |
| about the same affinity | 0.3 | 0.08 | 0.03 | C=C1CC/C(=C/C=C2\CCC[C@]3(C)[C@@H]([C@@H](C)CCCC(C)(C)O)CC[C@@H]23)C(=C)[C@H]1O [3D-QMS, (20S)-3-desoxy-1α,25-dihydroxy-2-methylene-vitamin D3] |  |  | higher mobilization of bone calcium than the native hormone | more potent than the native hormone; also recorded: significantly more activity in mobilizing calcium from bone than 1,25(OH)2D3 | about 40 times | about the same transcriptional activity | more potent than 1,25(OH)2D3 |  |  |
| about the same affinity | 0.4 | 1 | 0.2 | C=C1CC/C(=C/C=C2\CCC[C@]3(C)[C@@H]([C@H](C)CCCC(C)(C)O)CC[C@@H]23)C(=C)[C@H]1O [3D-QM, (20R)-3-desoxy-1α,25-dihydroxy-2-methylene-vitamin D3] |  |  |  | about the same potency as the native hormone |  | about the same transcriptional activity |  | only slightly less mobilization of bone calcium than the native hormone | about the same potency as 1,25(OH)2D3 |
